For the molecule `OB1OCc2ccc(Oc3ccc(OC(F)(F)F)cc3)cc21` [C29, 6-(4-(trifluoromethoxy)phenoxy)benzo[c][1,2]oxaborol-1(3H)-ol], the melting point lay within 97 to 101 °C. The same measure for `OB1OCc2ccc(Oc3ccc(Cl)cc3)cc21` [C20, 6-(4-chlorophenoxy)benzo[c][1,2]oxaborol-1(3H)-ol]: 119 to 130 °C; for `O=C(Nc1ccc2c(c1)B(O)OC2)c1ccccc1` [C52, N-(1-hydroxy-1,3-dihydrobenzo[c][1,2]oxaborol-6-yl)benzamide]: 186 to 193 °C; for `COc1ccc2c(c1)COB2O` [C7, 5-methoxybenzo[c][1,2]oxaborol-1(3H)-ol]: 102 to 104 °C.

In the case of `OB1OCc2ccc(Sc3ccc(F)cc3)cc21` [C44, 6-(4-fluorophenylthio)benzo[c][1,2]oxaborol-1(3H)-ol], the melting point was 135 to 138 °C. The same measure for `COc1ccc2c(c1)c(SCCC#N)cn2-c1ccc2c(c1)B(O)OC2` [C73, 3-(1-(1-hydroxy-1,3-dihydrobenzo[c][1,2]oxaborol-6-yl)-5-methoxy-1H-indol-3-ylthio)propanenitrile]: 149 to 154 °C; for `OB1OCc2ccc(Oc3ccccc3)cc21` [C21, 6-phenoxybenzo[c][1,2]oxaborol-1(3H)-ol]: 95 to 99 °C. To `OB1OCc2ccc(N3CCN(c4ccccc4)CC3)cc21` [C53, 6-(4-phenylpiperazin-1-yl)benzo[c][1,2]oxaborol-1(3H)-ol] belongs 159 to 161 °C; to `[O-][S+](c1ccc(C(F)(F)F)cc1)c1ccc2c(c1)B(O)OC2` (centres unmarked) [C93, 6-(4-(trifluoromethyl)phenylsulfinyl)benzo[c][1,2]oxaborol-1(3H)-ol], 79 to 88 °C. To `CN(C)c1ccc2c(c1)B(O)OC2` [C51, 6-(dimethylamino)benzo[c][1,2]oxaborol-1(3H)-ol] belongs 120 to 123 °C; to `O=S(=O)(c1ccccc1)N(c1ccc2c(c1)COB2O)S(=O)(=O)c1ccccc1` [C91, N-(1-hydroxy-1,3-dihydrobenzo[c][1,2]oxaborol-5-yl)-N-(phenylsulfonyl)benzenesulfonamide], 142 to 152 °C. As to `Cc1cscc1B1OCc2cc(F)ccc21` [compound 14, 1,3-Dihydro-5-fluoro-1-(4-methylthiophen-3-yl)-2,1-benzoxaborole], the melting point was 51 to 53 °C. The same measure for `N#Cc1cccc(COc2ccc3c(c2)COB3O)c1` [C96, 3-((1-hydroxy-1,3-dihydrobenzo[c][1,2]oxaborol-5-yloxy)methyl)benzonitrile]: 147 to 150 °C; for `C(=Cc1ccccc1)B1OCc2ccccc21` [10a, 1,3-Dihydro-1-styryl-2,1-benzoxaborole]: 57 to 59 °C; for `OB1OCc2ccc(Sc3ccc(C(F)(F)F)cc3)cc21` [C92, 6-(4-(trifluoromethyl)phenylthio)benzo[c][1,2]oxaborol-1(3H)-ol]: 111 to 113 °C.

Molecule `Cc1cccc2c1B(O)OC2` [C65, 7-methylbenzo[c][1,2]oxaborol-1(3H)-ol] displayed a melting point of 107 to 111 °C. The same measure for `OB1OCc2cc3c(cc21)COB3O` [C60, 3,7-dihydro-1,5-dihydroxy-1H,3H-Benzo[1,2-c:4,5-c′]bis[1,2]oxaborole]: greater than 250 °C. The same measure for `N#CCCSc1cn(-c2ccc3c(c2)B(O)OC3)c2ccccc12` [C67, 3-(1-(1-hydroxy-1,3-dihydrobenzo[c][1,2]oxaborol-6-yl)-1H-indol-3-ylthio)propanenitrile]: 135 to 141 °C; for `OB1OCc2ccc(N(Cc3ccccc3)Cc3ccccc3)cc21` [C78, 6-(dibenzylamino)benzo[c][1,2]oxaborol-1(3H)-ol]: 115 to 123 °C; for `OB1OCc2ccc(NCc3ccccc3)cc21` [C77, 6-(benzylamino)benzo[c][1,2]oxaborol-1(3H)-ol]: 126 to 133 °C.

These data come from patent US20070286822A1, “Compounds for the Treatment of Periodontal Disease” (ANACOR PHARMACEUTICALS INC., priority 2006, published 2007).
